The results in this text go back to patent US9873709B2 (priority 2013, dated 2018).

Each structure is given as a SMILES string.

The subject of the test is JAK1-dependent STAT6 phosphorylation downstream of IL-13 stimulation in TF-1 human erythroleukemia cells. The test can be described thus: cells. To be noted: TF-1, read-out: IL-13-pSTAT6 IC50.
On to `CCOC(=O)N1CC=C(c2cccn3nc(Nc4ccc(C(=O)NCc5cccnc5C)cc4)nc23)CC1` [Example 2-177, ethyl 4-[2-[4-[(2-methyl-3-pyridyl)methylcarbamoyl]anilino]-[1,2,4]triazolo[1,5-a]pyridin-8-yl]-3,6-dihydro-2H-pyridine-1-carboxylate], for which the IC50 was found to be 15.4 nM.

For `CCOC(=O)N1CC=C(c2cccn3nc(Nc4ccc(C(=O)NCc5cncc(C)c5)cc4)nc23)CC1` [Example 2-178, ethyl 4-[2-[4-[(5-methyl-3-pyridyl)methylcarbamoyl]anilino]-[1,2,4]triazolo[1,5-a]pyridin-8-yl]-3,6-dihydro-2H-pyridine-1-carboxylate], the IC50 stood at 32.6 nM.

As for `CCOC(=O)N1CC=C(c2cccn3nc(Nc4ccc(C(=O)N5CC6(CCCNC6)C5)cc4)nc23)CC1` [Example 2-185, ethyl 4-[2-[4-(2,8-diazaspiro[3,5]nonane-2-carbonyl)anilino]-[l,2,4]triazolo[l,5-a]pyridin-8-yl]-3,6-dihydro-2H-pyridine-1-carboxylate], the IC50 was 29.9 nM.

For the compound `O=C(CCC(F)(F)F)N1CC=C(c2cccn3nc(Nc4ccc(C(=O)N5CC6(CCCNC6)C5)cc4)nc23)CC1` [Example 2-186, 1-[4-[2-[4-(2,8-diazaspiro[3.5]nonane-2-carbonyl)anilino]-[1,2,4]triazolo[1,5-a]pyridin-8-yl]-3,6-dihydro-2H-pyridin-1-yl]-4,4,4-trifluoro-butan-1-one], the IC50 came to 23.3 nM.

As for `O=C(CCC(F)(F)F)N1CC=C(c2cccn3nc(Nc4ccc(C(=O)N5CCC6(CCNCC6)C5)cc4)nc23)CC1` [Example 2-187, 1-[4-[2-[4-(2,8-diazaspiro[4.5]decane-2-carbonyl)anilino]-[1,2,4]triazolo[1,5-a]pyridin-8-yl]-3,6-dihydro-2H-pyridin-1-yl]-4,4,4-trifluoro-butan-1-one], the IC50 was 652 nM.

For `O=C(NC1COC2(CCNCC2)C1)c1ccc(Nc2nc3c(C4=CCN(C(=O)CCC(F)(F)F)CC4)cccn3n2)cc1` (stereo not shown) [Example 2-188, N-(1-oxa-8-azaspiro[4.5]decan-3-yl)-4-[[8-[1-(4,4,4-trifluorobutanoyl)-3,6-dihydro-2H-pyridin-4-yl]-[1,2,4]triazolo[1,5-a]pyridin-2-yl]amino]benzamide], the IC50 was 239 nM.

For the compound `O=C(NCC1CCC2(CCNCC2)CO1)c1ccc(Nc2nc3c(C4=CCN(C(=O)CCC(F)(F)F)CC4)cccn3n2)cc1` (stereo not shown) [Example 2-189, N-(2-oxa-9-azaspiro[5.5]undecan-3-ylmethyl)-4-[[8-[1-(4,4,4-trifluorobutanoyl)-3,6-dihydro-2H-pyridin-4-yl]-[1,2,4]triazolo[1,5-a]pyridin-2-yl]amino]benzamide], the IC50 turned out to be 110 nM.

Consider `O=C(CCC(F)(F)F)N1CC=C(c2cccn3nc(Nc4ccc(C(=O)N5CCCC6(CNCCO6)C5)cc4)nc23)CC1` (stereo not shown) [Example 2-190, 4,4,4-trifluoro-1-[4-[2-[4-(1-oxa-4,8-diazaspiro[5.5]undecane-8-carbonyl)anilino]-[1,2,4]triazolo[1,5-a]pyridin-8-yl]-3,6-dihydro-2H-pyridin-1-yl]butan-1-one], for which the IC50 was found to be 40.9 nM.

On to `O=C(CCC(F)(F)F)N1CC=C(c2cccn3nc(Nc4ccc(C(=O)N5CCC6(CCCNC6)CC5)cc4)nc23)CC1` [Example 2-191, 1-[4-[2-[4-(2,9-diazaspiro[5.5]undecane-9-carbonyl)anilino]-[1,2,4]triazolo[1,5-a]pyridin-8-yl]-3,6-dihydro-2H-pyridin-1-yl]-4,4,4-trifluoro-butan-1-one], for which the IC50 was 63.7 nM.

`O=C(NCC1CCCNC1)c1ccc(Nc2nc3c(C4=CCN(C(=O)CCC(F)(F)F)CC4)cccn3n2)cc1` (stereo not shown) [Example 2-192, N-(3-piperidylmethyl)-4-[[8-[1-(4,4,4-trifluorobutanoyl)-3,6-dihydro-2H-pyridin-4-yl]-[1,2,4]triazolo[1,5-a]pyridin-2-yl]amino]benzamide]: the IC50 was determined as 213 nM.

For the compound `O=C(NCCC1CCCNC1)c1ccc(Nc2nc3c(C4=CCN(C(=O)CCC(F)(F)F)CC4)cccn3n2)cc1` (stereo not shown) [Example 2-193, N-[2-(3-piperidyl)ethyl]-4-[[8-[1-(4,4,4-trifluorobutanoyl)-3,6-dihydro-2H-pyridin-4-yl]-[1,2,4]triazolo[1,5-a]pyridin-2-yl]amino]benzamide], the IC50 amounted to 278 nM.

Take `NCCNC(=O)c1ccc(Nc2nc3c(C4=CCN(C(=O)CCC(F)(F)F)CC4)cccn3n2)cc1` [Example 2-194, N-(2-aminoethyl)-4-[[8-[1-(4,4,4-trifluorobutanoyl)-3,6-dihydro-2H-pyridin-4-yl]-[1,2,4]triazolo[1,5-a]pyridin-2-yl]amino]benzamide]: the IC50 amounted to 94.2 nM.

With `O=C(CCC(F)(F)F)N1CC=C(c2cccn3nc(Nc4ccc(C(=O)N5CCCNCC5)cc4)nc23)CC1` [Example 2-195, 1-[4-[2-[4-(1,4-diazepane-1-carbonyl)anilino]-[1,2,4]triazolo[1,5-a]pyridin-8-yl]-3,6-dihydro-2H-pyridin-1-yl]-4,4,4-trifluoro-butan-1-one], the IC50 is 163 nM.

On to `CC1CN(C(=O)c2ccc(Nc3nc4c(C5=CCN(C(=O)CCC(F)(F)F)CC5)cccn4n3)cc2)CCN1` (stereo not shown) [Example 2-196, 4,4,4-trifluoro-1-[4-[2-[4-(3-methylpiperazine-1-carbonyl)anilino]-[1,2,4]triazolo[1,5-a]pyridin-8-yl]-3,6-dihydro-2H-pyridin-1-yl]butan-1-one], for which the IC50 turned out to be 29.9 nM.

Turning to `O=C(CCC(F)(F)F)N1CC=C(c2cccn3nc(Nc4ccc(C(=O)N5CCC6(CCN6)CC5)cc4)nc23)CC1` [Example 2-197, 1-[4-[2-[4-(1,7-diazaspiro[3.5]nonane-7-carbonyl)anilino]-[1,2,4]triazolo[1,5-a]pyridin-8-yl]-3,6-dihydro-2H-pyridin-1-yl]-4,4,4-trifluoro-butan-1-one], the IC50 was found to be 295 nM.

Consider `O=C(CCC(F)(F)F)N1CC=C(c2cccn3nc(Nc4ccc(C(=O)N5CCC6(CCCN6)CC5)cc4)nc23)CC1` [Example 2-198, 1-[4-[2-[4-(1,8-diazaspiro[4.5]decane-8-carbonyl)anilino]-[1,2,4]triazolo[1,5-a]pyridin-8-yl]-3,6-dihydro-2H-pyridin-1-yl]-4,4,4-trifluoro-butan-1-one], for which the IC50 worked out at 53.9 nM.

Turning to `CN(Cc1ccccn1)C(=O)c1ccc(Nc2nc3c(C4=CCN(C(=O)CCC(F)(F)F)CC4)cccn3n2)cc1` [Example 2-199, N-methyl-N-(2-pyridylmethyl)-4-[[8-[1-(4,4,4-trifluorobulanoyl)-3,6-dihydro-2H-pyridin-4-yl]-[1,2,4]triazolo[1,5-a]pyridin-2-yl]amino]benzamide], the IC50 stood at 4.2 nM.

In the case of `O=C(CCC(F)(F)F)N1CC=C(c2cccn3nc(Nc4ccc(C(=O)N5CCN6CCCC6C5)cc4)nc23)CC1` (stereo not shown) [Example 2-200, 1-[4-[2-[4-(3,4,6,7,8,8a-hexahydro-1H-pyrrolo[1,2-a]pyrazine-2-carbonyl)anilino]-[1,2,4]triazolo[1,5-a]pyridin-8-yl]-3,6-dihydro-2H-pyridin-1-yl]-4,4,4-trifluoro-butan-1-one], the IC50 was 4.1 nM.

With `CN1CC2CC(C1)N(C(=O)c1ccc(Nc3nc4c(C5=CCN(C(=O)CCC(F)(F)F)CC5)cccn4n3)cc1)C2` (stereo not shown) [Example 2-201, 4,4,4-trifluoro-1-[4-[2-[4-(3-methyl-3,6-diazabicyclo[3.2.1]octane-6-carbonyl)anilino]-[1,2,4]triazolo[1,5-a]pyridin-8-yl]-3,6-dihydro-2H-pyridin-1-yl]butan-1-one], the IC50 was 6 nM.

Turning to `O=C(CCC(F)(F)F)N1CC=C(c2cccn3nc(Nc4ccc(C(=O)N5CCN(C6CC6)CC5)cc4)nc23)CC1` [Example 2-202, 1-[4-[2-[4-(4-cyclopropylpiperazine-1-carbonyl)anilino]-[1,2,4]triazolo[1,5-a]pyridin-8-yl]-3,6-dihydro-2H-pyridin-1-yl]-4,4,4-trifluoro-butan-1-one], the IC50 is 11.5 nM.

On to `Cn1ccnc1CN1CCN(C(=O)c2ccc(Nc3nc4c(C5=CCN(C(=O)CCC(F)(F)F)CC5)cccn4n3)cc2)CC1` [Example 2-203, 4,4,4-trifluoro-1-[4-[2-[4-[4-[(1-methylimidazol-2-yl)methyl]piperazine-1-carbonyl]anilino]-[1,2,4]triazolo[1,5-a]pyridin-8-yl]-3,6-dihydro-2H-pyridin-1-yl]butan-1-one], for which the IC50 was 30.1 nM.

In the case of `CC(=O)N1CC2(C1)CN(C(=O)c1ccc(Nc3nc4c(C5=CCN(C(=O)CCC(F)(F)F)CC5)cccn4n3)cc1)C2` [Example 2-204, 1-[4-[2-[4-(6-acetyl-2,6-diazaspiro[3.3]heptane-2-carbonyl)anilino]-[1,2,4]triazolo[1,5-a]pyridin-8-yl]-3,6-dihydro-2H-pyridin-1-yl]-4,4,4-trifluoro-butan-1-one], the IC50 is 89.7 nM.

Regarding `CN1CC2CN(C(=O)c3ccc(Nc4nc5c(C6=CCN(C(=O)CCC(F)(F)F)CC6)cccn5n4)cc3)CC(C1)O2` [Example 2-205, 4,4,4-trifluoro-1-[4-[2-[4-(7-methyl-9-oxa-3,7-diazabicyclo[3.3.1]nonane-3-carbonyl)anilino]-[1,2,4]triazolo[1,5-a]pyridin-8-yl]-3,6-dihydro-2H-pyridin-1-yl]butan-1-one], the IC50 amounted to 10 nM.

Turning to `Cc1cncc(CNC(=O)c2ccc(Nc3nc4c(C5=CCN(C(=O)CCC(F)(F)F)CC5)cccn4n3)cc2)c1` [Example 2-206, N-[(5-methyl-3-pyridyl)methyl]-4-[[8-[1-(4,4,4-trifluorobutanoyl)-3,6-dihydro-2H-pyridin-4-yl]-[1,2,4]triazolo[1,5-a]pyridin-2-yl]amino]benzamide], the IC50 turned out to be 3.4 nM.

In the case of `NCC1CN(C(=O)c2ccc(Nc3nc4c(C5=CCN(C(=O)CCC(F)(F)F)CC5)cccn4n3)cc2)C1` [Example 2-207, 1-[4-[2-[4-[3-(aminomethyl)azetidine-1-carbonyl]anilino]-[1,2,4]triazolo[1,5-a]pyridin-8-yl]-3,6-dihydro-2H-pyridin-1-yl]-4,4,4-trifluoro-butan-1-one], the IC50 came to 141 nM.

In general, IC50 refers to the concentration that inhibits the measured activity by half.
